The source of these data is patent publication US8729053B2, “Nuclear factor kappa B pathway inhibitor composition and use of same” (The United States of America, as represented by the …, priority 2008, dated 2014).

The subject of test [1] is NCI-60 panel of human cancer cell lines. Nature of the test: NCI-60 cancer screen, growth inhibition. Format: cell-based. An excerpt:
Thus in addition to inhibiting tumorigenesis (transformation) and tumor progression (invasion), compound I may have potential for tumor growth inhibition in some cancer sites.

For another test, the system named is AP-1. Nature of the test: EMSA of AP-1 DNA binding, HEK293 nuclear fractions. Format: cell-based. The note with it: 17 μM. The procedure: EMSA was performed with the nuclear fraction of HEK293 cell using LightShift Chemiluminescent EMSA Kit (Pierce Biotechnology, Rockford, Ill.) according to the manufacture's instruction. Oligonucleotides for NFκB, NF-1, and AP-1 were labeled with biotin by Biotin 3′ End DNA labeling Kit (Pierce Biotechnology, Rockford, Ill.). The quantified 15 μg of nuclear extracts were incubated for 20 mins with 1 μg/μl Poly (dI.dC), biotin end-label target nucleotides in 20 μl binding buffer DNA-protein complexes were fractionated on 6% a polyacrylamide gel and transferred to a nylon membrane. The membranes were processed to detect biotin-label DNA by cross-linking, blocking, and detection incubations. Results were obtained by X-ray film exposure for 10 sec and development. The target sequences of oligonucleotides for NFκB, NF-1, and AP-1 are as follows;
To determine whether the effect of compound I on nuclear translocation of NFκB leads to inhibited binding of NFκB proteins to DNA, EMSA in HEK293 cells was performed. […] TPA-induced binding complex was attenuated by pretreatment with compound I in a dose-dependent manner (lanes 5-9). This binding inhibition parallels the inhibition of luciferase reporter transactivation and inhibition of nuclear translocation of NFκB proteins. […]
On the technique in general: Mobility shift assays separate free from complexed probe on a gel.

In the next test the target is T1, IKKβ (Homo sapiens, UniProt O14920).
T1 construct: purchased Calbiochem
T1 sequence (O14920 1-756): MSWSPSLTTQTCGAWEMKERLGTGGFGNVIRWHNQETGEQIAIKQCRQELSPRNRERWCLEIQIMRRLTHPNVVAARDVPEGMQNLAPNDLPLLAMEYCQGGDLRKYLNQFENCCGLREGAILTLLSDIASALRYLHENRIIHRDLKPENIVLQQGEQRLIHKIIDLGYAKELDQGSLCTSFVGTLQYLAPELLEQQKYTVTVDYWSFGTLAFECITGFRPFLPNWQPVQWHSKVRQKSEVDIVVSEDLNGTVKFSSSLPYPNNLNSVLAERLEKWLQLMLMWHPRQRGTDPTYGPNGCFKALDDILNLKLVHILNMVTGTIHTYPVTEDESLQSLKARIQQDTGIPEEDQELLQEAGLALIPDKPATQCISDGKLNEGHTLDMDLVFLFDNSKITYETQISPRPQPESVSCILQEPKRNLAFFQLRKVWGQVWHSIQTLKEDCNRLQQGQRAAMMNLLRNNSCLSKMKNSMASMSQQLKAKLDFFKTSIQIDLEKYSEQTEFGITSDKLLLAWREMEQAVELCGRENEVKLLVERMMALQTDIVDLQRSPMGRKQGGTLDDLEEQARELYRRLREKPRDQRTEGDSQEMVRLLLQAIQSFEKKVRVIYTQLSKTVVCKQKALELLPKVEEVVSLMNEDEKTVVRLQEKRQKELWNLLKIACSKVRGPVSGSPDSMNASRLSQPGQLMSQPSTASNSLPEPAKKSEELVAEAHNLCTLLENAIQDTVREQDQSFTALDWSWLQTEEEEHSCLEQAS
Nature of the test: K-LISA IKKβ Inhibitor Screening Kit in vitro assay. It counts as biochemical. The note with it: 0.1 to 100 μM, incubated with ATP. Here is the method: (§1) In an attempt to determine whether compound I interferes with ATP binding to the catalytic site, the activity of compound I was measured with fully activated, phosphorylated IKKα or IKKβ. […] However, whether this compound interacts outside of the ATP binding pocket of IKK as an ATP non-competitive inhibitor similar to BMS-345541 is unknown. […] Luciferase activities with TPA induction alone were set at 100% and the relative activities with TPA in the presence of compounds are shown.

The next test has as its target IKKα (Homo sapiens, UniProt O15111). Nature of the test: Off-chip incubation mobility-shift kinase assay, IKKα. It counts as biochemical. The conditions noted are these: fully activated, phosphorylated IKKα; 1.25, 2.50, 5.00, and 10.00 μM. The procedure:
as §1

Structures can show the parent of a compound that is named as a salt.

Sequence of IKKα (O15111 whole entry, species assumed): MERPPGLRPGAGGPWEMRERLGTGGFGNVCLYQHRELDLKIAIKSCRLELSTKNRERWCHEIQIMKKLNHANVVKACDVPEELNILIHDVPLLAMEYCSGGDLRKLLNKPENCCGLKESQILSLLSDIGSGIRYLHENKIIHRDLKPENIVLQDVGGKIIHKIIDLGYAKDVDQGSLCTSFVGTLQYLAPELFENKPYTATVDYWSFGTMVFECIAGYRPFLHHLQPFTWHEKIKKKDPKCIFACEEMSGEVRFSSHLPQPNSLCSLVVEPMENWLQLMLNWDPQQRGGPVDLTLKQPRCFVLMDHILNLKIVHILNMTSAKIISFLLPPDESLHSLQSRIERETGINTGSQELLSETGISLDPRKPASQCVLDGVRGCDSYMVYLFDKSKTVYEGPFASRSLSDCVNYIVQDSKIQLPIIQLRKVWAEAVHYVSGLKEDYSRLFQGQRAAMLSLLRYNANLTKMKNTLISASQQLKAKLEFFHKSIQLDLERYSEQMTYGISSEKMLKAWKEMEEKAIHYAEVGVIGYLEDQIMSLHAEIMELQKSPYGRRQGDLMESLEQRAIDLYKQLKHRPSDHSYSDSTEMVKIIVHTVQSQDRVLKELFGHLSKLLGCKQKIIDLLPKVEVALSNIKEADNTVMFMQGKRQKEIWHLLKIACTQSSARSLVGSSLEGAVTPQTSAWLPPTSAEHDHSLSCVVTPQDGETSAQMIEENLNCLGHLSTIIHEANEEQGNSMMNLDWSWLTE

With `Cc1cc(N)ccc1N=Nc1ccc(S(=O)(=O)CCOS(=O)(=O)O)cc1` [compound I, 2-(4-((4-amino-2-methylphenyl)diazenyl)phenylsulfonyl)ethyl hydrogen sulfate], in test [1] (Homo sapiens, compound at 1 μM, read-out: Growth inhibition of leukemia lines), the inhibition (usually the percentage by which the read-out fell short of the control) at 1 µM is more than 50%. Also, the “Killing of leukemia lines” value in test [1] (concentrations up to 100 μM) was “does not kill”. In addition, in test [1] (growth inhibition), the “Sensitivity of leukemia and breast cancer cell lines versus lines from other cancer sites” value was “more sensitive”. Further, the “Concentration at which most of the NCI-60 lines showed growth inhibition” value in test [1] (most of the NCI-60 human cancer cell lines) is given as “greater than 10 μM”. For the same compound, the “AP-1 DNA binding activity” value in the test on AP-1 was “little or no effect”. The “Inhibition of phosphorylation of IκBα peptide substrate catalyzed by IKKβ” value on IKKβ is on record as “no inhibition”. The “Inhibition of IKKα activity, phosphorylation of a peptide substrate” value at IKKα was “does not inhibit”.
